Patent publication US7445765B2, “Radiopharmaceutical for diagnostic imaging containing a technetium-99m nitride heterocomplex” (Nihon Medi-Physics Co., Ltd., priority 2000, dated 2008)

Assay: Biodistribution of the 99mTc(N) heterocomplexes in rats (organ uptake, heart accumulation, heart/lung and heart/liver ratios)
Type: in vivo, female Sprague-Dawley rats
Details: for Heart/liver ratio in biodistribution / Heart/lung ratio in biodistribution: rats
Protocol: The biodistribution was measured by using female Sprague-Dawley rats (SD rats) weighing 200 g to 250 g. Each of the ^99mTc(N) heterocomplexes purified in the manner described above was diluted with phosphate buffer (0.1 M, pH=7.4) to obtain a final solution having an ethanol content of 10%. After the SD rats were anesthetized with an intramuscular injection of a mixture of ketamine (80 mg/kg) and xilazine (19 mg/kg), the jugular vein of each rat was surgically exposed and 100 μL (300 to 370 kBq) of the solution containing each ^99mTc(N) heterocomplexes prepared in the manner described above was injected in the jugular vein. The rats (n=3) were sacrificed by cervical dislocation at different times post injection. The blood was withdrawn from the heart through a syringe and counted. It was assumed that the whole blood content was 6.5% of the total body weight. The organs were excised from the rats, washed with physiological saline, weighed, and counted in a NaI well counter.
For comparison, Tables 19 and 20 show the results, obtained in the same manner as above, of measuring the biodistribution of (^99mTc) (MIBI) and (^99mTc) (Tf) which have been used as pharmaceuticals for diagnostic imaging for blood flow in myocardium.
Tables 21 to 23 show data showing the variations with time of heart accumulation, heart/lung ratios and heart/liver ratios for the ^99mTc(N) heterocomplexes of the present invention.

With CCOCCN1CC[P](CCCOC)(CCCOC)[99Tc+]2(#[N])([S]C(N(CCOCC)C(C)C)=[S]2)[P](CCCOC)(CCCOC)CC1 [[^99mTc(N) (PNP5) (ISOET)]^+] the “Biodistribution in rats: Adrenal glands” value (2 min post injection) was 2.24 % dose/g, the “Biodistribution in rats: Blood” value (2 min post injection) was 0.14 % dose/g and the “Biodistribution in rats: Brain” value (2 min post injection) was 0.02 % dose/g. The “Biodistribution in rats: Heart” value (2 min post injection) was 2.33 % dose/g, the “Biodistribution in rats: Intestine” value (2 min post injection) was 3.68 % dose/g and the “Biodistribution in rats: Kidneys” value (2 min post injection) was 7.19 % dose/g. The “Biodistribution in rats: Liver” value (2 min post injection) was 2.79 % dose/g, the “Biodistribution in rats: Lungs” value (2 min post injection) was 0.74 % dose/g and the “Biodistribution in rats: Muscle” value (2 min post injection) was 0.16 % dose/g. For the same molecule, the “Biodistribution in rats: Spleen” value (2 min post injection) was 1.11 % dose/g, the “Biodistribution in rats: Submax. glands” value (2 min post injection) was 0.95 % dose/g and the “Biodistribution in rats: Adrenal glands” value (10 min (Table 16)) was 2.22 % dose/g. The “Biodistribution in rats: Blood” value (10 min (Table 16)) was 0.93 % dose/g, the “Biodistribution in rats: Brain” value (10 min (Table 16)) was 0.10 % dose/g and the “Biodistribution in rats: Heart” value (10 min (Table 16)) was 3.35 % dose/g. The “Biodistribution in rats: Intestine” value (10 min (Table 16)) was 3.70 % dose/g, the “Biodistribution in rats: Kidneys” value (10 min (Table 16)) was 5.40 % dose/g and the “Biodistribution in rats: Liver” value (10 min (Table 16)) was 0.95 % dose/g. For the same molecule, the “Biodistribution in rats: Lungs” value (10 min (Table 16)) was 2.44 % dose/g, the “Biodistribution in rats: Muscle” value (10 min (Table 16)) was 0.13 % dose/g and the “Biodistribution in rats: Spleen” value (10 min (Table 16)) was 1.16 % dose/g. The “Biodistribution in rats: Submax. glands” value (10 min (Table 16)) was 0.92 % dose/g, the “Biodistribution in rats: Adrenal glands” value (10 min post injection) was 2.70 % dose/g and the “Biodistribution in rats: Blood” value (10 min post injection) was 0.04 % dose/g. For the same molecule, the “Biodistribution in rats: Brain” value (10 min post injection) was 0.02 % dose/g, the “Biodistribution in rats: Heart” value (10 min post injection) was 2.91 % dose/g and the “Biodistribution in rats: Intestine” value (10 min post injection) was 7.12 % dose/g. The “Biodistribution in rats: Kidneys” value (10 min post injection) was 5.98 % dose/g, the “Biodistribution in rats: Liver” value (10 min post injection) was 1.54 % dose/g and the “Biodistribution in rats: Lungs” value (10 min post injection) was 0.73 % dose/g. The “Biodistribution in rats: Muscle” value (10 min post injection) was 0.22 % dose/g, the “Biodistribution in rats: Spleen” value (10 min post injection) was 1.28 % dose/g and the “Biodistribution in rats: Submax. glands” value (10 min post injection) was 1.40 % dose/g. For the same molecule, the “Biodistribution in rats: Adrenal glands” value (20 min post injection) was 2.70 % dose/g, the “Biodistribution in rats: Blood” value (20 min post injection) was 0.02 % dose/g and the “Biodistribution in rats: Brain” value (20 min post injection) was 0.01 % dose/g. For the same molecule, the “Biodistribution in rats: Heart” value (20 min post injection) was 2.86 % dose/g, the “Biodistribution in rats: Intestine” value (20 min post injection) was 7.44 % dose/g and the “Biodistribution in rats: Kidneys” value (20 min post injection) was 5.31 % dose/g. For the same molecule, the “Biodistribution in rats: Liver” value (20 min post injection) was 1.09 % dose/g, the “Biodistribution in rats: Lungs” value (20 min post injection) was 0.50 % dose/g and the “Biodistribution in rats: Muscle” value (20 min post injection) was 0.20 % dose/g. The “Biodistribution in rats: Spleen” value (20 min post injection) was 1.20 % dose/g, the “Biodistribution in rats: Submax. glands” value (20 min post injection) was 1.85 % dose/g and the “Biodistribution in rats: Adrenal glands” value (30 min post injection) was 2.72 % dose/g. The “Biodistribution in rats: Blood” value (30 min post injection) was 0.02 % dose/g, the “Biodistribution in rats: Brain” value (30 min post injection) was 0.01 % dose/g and the “Biodistribution in rats: Heart” value (30 min post injection) was 2.47 % dose/g. The “Biodistribution in rats: Intestine” value (30 min post injection) was 8.36 % dose/g, the “Biodistribution in rats: Kidneys” value (30 min post injection) was 5.28 % dose/g and the “Biodistribution in rats: Liver” value (30 min post injection) was 1.06 % dose/g. For the same molecule, the “Biodistribution in rats: Lungs” value (30 min post injection) was 0.45 % dose/g, the “Biodistribution in rats: Muscle” value (30 min post injection) was 0.13 % dose/g and the “Biodistribution in rats: Spleen” value (30 min post injection) was 0.35 % dose/g. For the same molecule, the “Biodistribution in rats: Submax. glands” value (30 min post injection) was 1.51 % dose/g, the “Biodistribution in rats: Adrenal glands” value (60 min post injection) was 2.23 % dose/g and the “Biodistribution in rats: Blood” value (60 min post injection) was 0.02 % dose/g. For the same molecule, the “Biodistribution in rats: Brain” value (60 min post injection) was 0.00 % dose/g, the “Biodistribution in rats: Heart” value (60 min post injection) was 2.74 % dose/g and the “Biodistribution in rats: Intestine” value (60 min post injection) was 8.29 % dose/g. For the same molecule, the “Biodistribution in rats: Kidneys” value (60 min post injection) was 5.12 % dose/g, the “Biodistribution in rats: Liver” value (60 min post injection) was 0.43 % dose/g and the “Biodistribution in rats: Lungs” value (60 min post injection) was 0.35 % dose/g. For the same molecule, the “Biodistribution in rats: Muscle” value (60 min post injection) was 0.15 % dose/g, the “Biodistribution in rats: Spleen” value (60 min post injection) was 0.73 % dose/g and the “Biodistribution in rats: Submax. glands” value (60 min post injection) was 1.79 % dose/g. For the same molecule, the “Biodistribution in rats: Adrenal glands” value (120 min post injection) was 2.98 % dose/g, the “Biodistribution in rats: Blood” value (120 min post injection) was 0.01 % dose/g and the “Biodistribution in rats: Brain” value (120 min post injection) was 0.01 % dose/g. For the same molecule, the “Biodistribution in rats: Heart” value (120 min post injection) was 2.44 % dose/g, the “Biodistribution in rats: Intestine” value (120 min post injection) was 8.00 % dose/g and the “Biodistribution in rats: Kidneys” value (120 min post injection) was 4.50 % dose/g. For the same molecule, the “Biodistribution in rats: Liver” value (120 min post injection) was 0.23 % dose/g, the “Biodistribution in rats: Lungs” value (120 min post injection) was 0.22 % dose/g and the “Biodistribution in rats: Muscle” value (120 min post injection) was 0.19 % dose/g. The “Biodistribution in rats: Spleen” value (120 min post injection) was 0.41 % dose/g and the “Biodistribution in rats: Submax. glands” value (120 min post injection) was 1.38 % dose/g.
For CCOCCN1CC[P](CCCOC)(CCCOC)[99Tc+]2(#[N])([S]C(N(CCOCC)C(C)C)=[S]2)[P](CCCOC)(CCCOC)CC1 [[^99mTc(N) (PNP5) (ISOET)^+]], the “Heart/liver ratio in biodistribution” value (0 min) was 3.53, the “Heart/lung ratio in biodistribution” value (0 min) was 1.37 and the “Heart/liver ratio in biodistribution” value (2 min) was 0.83. The “Heart/lung ratio in biodistribution” value (2 min) was 3.15, the “Heart/liver ratio in biodistribution” value (10 min) was 1.90 and the “Heart/lung ratio in biodistribution” value (10 min) was 3.99. The “Heart/liver ratio in biodistribution” value (20 min) was 2.62, the “Heart/lung ratio in biodistribution” value (20 min) was 5.72 and the “Heart/liver ratio in biodistribution” value (30 min) was 2.33. For the same molecule, the “Heart/lung ratio in biodistribution” value (30 min) was 5.49, the “Heart/liver ratio in biodistribution” value (60 min) was 6.37 and the “Heart/lung ratio in biodistribution” value (60 min) was 7.83. For the same molecule, the “Heart/liver ratio in biodistribution” value (120 min) was 10.61 and the “Heart/lung ratio in biodistribution” value (120 min) was 11.09.
With CCOCCC[P]1(CCCOCC)CCN(CCOCC)CC[P](CCCOCC)(CCCOCC)[99Tc+]12(#[N])[S]C(N(CCOCC)CCOCC)=[S]2 [[^99mTc(N) (PNP6) (DBODC)^+]] the “Heart/liver ratio in biodistribution” value (0 min) was 0.63, the “Heart/lung ratio in biodistribution” value (0 min) was 0.58 and the “Heart/liver ratio in biodistribution” value (2 min) was 0.21. For the same molecule, the “Heart/lung ratio in biodistribution” value (2 min) was 0.99, the “Heart/liver ratio in biodistribution” value (10 min) was 0.18 and the “Heart/lung ratio in biodistribution” value (10 min) was 1.26. The “Heart/liver ratio in biodistribution” value (20 min) was 0.18, the “Heart/lung ratio in biodistribution” value (20 min) was 1.48 and the “Heart/liver ratio in biodistribution” value (30 min) was 0.23. The “Heart/lung ratio in biodistribution” value (30 min) was 1.75, the “Heart/liver ratio in biodistribution” value (60 min) was 0.31 and the “Heart/lung ratio in biodistribution” value (60 min) was 2.29. The “Heart/liver ratio in biodistribution” value (120 min) was 0.51 and the “Heart/lung ratio in biodistribution” value (120 min) was 3.91.
